Patent US9811635B2, “Immune and oxygen system measuring and drug screening method and apparatus” (priority 2010, dated 2017)

Key:
human blood = assay: Immunogram Analyzer run: effect of borate and aspirin on ROX/BOX of human blood; type: cell-based; settings: for effect on ROX and BOX: compared to saline runs on a patient's blood; for BOX / ROX / ROXNO / ROXO2: human blood aged 5 days at room temperature, 0.10 ml blood, 0.9 ml saline
Text: (§1) First, a testing apparatus having a sample well 10 or cell with a sensor or probe 20 and a reader/processor 30 is provided. […] The testing probes are inserted into the cell and the testing apparatus is calibrated so that the reading for levels of signaling materials is at zero. For example, a compound A, such as signaling material-free saline solution can be added to cell E derive an instrument baseline reading free of signaling material. Alternatively, a gas that is free of signaling material can be bubbled into the cell.
Once a baseline showing a zero reading for signaling materials is established, an amount of blood D is added to cell E. This amount of blood D can be a small quantity, such as between about 0.02 mL and about 0.10 mL, of freshly drawn or frozen blood from a test individual or patient. For convenience, a 3.00 mL sample of anticoagulated blood may be frozen for later analysis. Very small samples of blood, such as less than about 0.02 mL, may also be analyzed.
(§2) An initial reading is made of the levels of signaling materials in the sample prior to any stress being imposed. The mixture of compound A and blood D is then exposed to an initial stress B. A suitable stress would be physical shear stress produced by the administering syringe and/or a rotating magnetic stirrer. The sensor within the cell E then determines a drop in concentration of signaling materials, which is presumably brought on by the addition of stress B. Generally, this drop in signaling materials concentration yields the value of BOX, which is correlated to the ability of the system to incorporate signaling materials for transport. Following this drop, any rise in concentration of signaling materials yields the value of ROX, which correlates to the capacity of the system to provide a reservoir of signaling materials.
The sensor of the testing apparatus preferably includes two or more sensors—one may be a membrane-based oxygen electrode 22, such as a polarographic Clark oxygen electrode, which measures O2, NO, H2S and other signaling materials that are unbound and can thus permeate through the membrane. In polarographic sensors, an anode, which is polarized, and a cathode are immersed in an electrolyte, into which oxygen and other signaling materials, permeates through the membrane. The anode/cathode pair causes current to flow in direct proportion to the amount of signaling material, such as oxygen, entering the system. The magnitude of the current thus directly correlates to the amount of signaling material entering the probe or sensor. It would be apparent that a membrane-based sensor necessarily depletes the sample of the material being tested as a result of consumption, yet the level of material consumed by the sensor is considered herein to be of an order of magnitude as to be insignificant for practical purposes.
The other sensor 24 or probe may be an optical fluorescence dissolved oxygen analyzer, such as an Ocean Optics ruthenium-coated fiber optical light emitting diode (LED) probe, and can also include other suitable light based devices, including a laser (hereinafter referred to collectively as an “optical sensor”), which determines an amount of value for O2 and the bundled O2 reservoir (ROXO2). Other sensors, such as chip-based sensors, may also be used on the basis of price, convenience, and sensitivity to new signaling and reactive substances.
As used herein, “ROXO2” is determinable O2 reservoir, and “ROXNO” is determinable NO reservoir. When bundled by the blood, and, in particular, the white blood cells, which are preparing signaling materials for use by the body, ROXO2 and ROXNO are unable to travel through the membrane sensor. However, after a BOX event occurs, increased levels of signaling materials in the sample, as determined by either the membrane or optical sensor, which tend to track each other, yield amounts of ROXO2 and ROXNO. […]

bovine blood standard = type: cell-based
Text: as §1
as §2, with “Following this drop, any rise in concentration of signaling materials yields the value of ROX, which correlates to the capacity of the system to provide a reservoir of signaling materials.” left out
The other sensor 24 or probe may be an optical fluorescence dissolved oxygen analyzer, such as an Ocean Optics ruthenium-coated fiber optical light emitting diode (LED) probe, and can also include other suitable light based devices, including a laser (hereinafter referred to collectively as an “optical sensor”), which determines an amount of value for O2 and the bundled O2 reservoir (ROXO2). […]
Between these two or more sensors, therefore, the testing provides a reading for O2, NO, ROXO2, and NO that is in a bundled reservoir (ROXNO), as shown in FIGS. 6 and 7. […] Thus, the readings from the membrane probe and the optical probe together provide a total concentration of BOX and ROX (ROXO2+ROXNO) in the sample after exposure to physical stress B. Also, the slopes of the curves in FIGS. 6 and 7 yield valuable information with respect to the rates of reaction of these components. […]

Increases ROXO2 by (bovine blood standard)	Lowers BOX by (bovine blood standard)	Lowers ROXNO by (bovine blood standard)	Compound	effect on ROX and BOX (human blood)	effect on ROX and BOX (human blood; listed as borate eye wash)	BOX (human blood)	ROX (human blood)	ROXNO (human blood)	ROXO2 (human blood)	release of NO (human blood; final run of FIG. 6, human blood)	rise of NO (human blood; in 2 seconds, human blood)
			borate	increases of BOX and ROX	affect ROX and BOX	41% of air saturation	79% of air saturation	31% of air saturation	27% of air saturation		
			CC(=O)Oc1ccccc1C(=O)O [Aspirin, aspirin]	affect ROX and BOX		35% of air saturation	74% of air saturation	34% of air saturation	29% of air saturation	very rapid releases of NO	a 37% rise
10%	Lowers BOX by 8%	25%	acid-citrate-dextrose [ACD]								
